Assay results: US10457654B2 (GENENTECH, INC., priority 2017, dated 2019)
Where a name gives a salt, the structure may show the parent alone.

Columns and labels:
[1] = biological target: T1, hNav1.7 (Homo sapiens (Human), UniProt Q15858); assay: Tritiated compound binding to membranes from cells expressing hNav1.7 and the β1 subunit, modified protocol (LBA, Ex. 243B); conditions: 300 pM [3H]compound, room temperature, read-out: Nav1.7 LBA (Ex. 243B) IC50
Target sequence in this assay (Q15858 whole entry, looked up): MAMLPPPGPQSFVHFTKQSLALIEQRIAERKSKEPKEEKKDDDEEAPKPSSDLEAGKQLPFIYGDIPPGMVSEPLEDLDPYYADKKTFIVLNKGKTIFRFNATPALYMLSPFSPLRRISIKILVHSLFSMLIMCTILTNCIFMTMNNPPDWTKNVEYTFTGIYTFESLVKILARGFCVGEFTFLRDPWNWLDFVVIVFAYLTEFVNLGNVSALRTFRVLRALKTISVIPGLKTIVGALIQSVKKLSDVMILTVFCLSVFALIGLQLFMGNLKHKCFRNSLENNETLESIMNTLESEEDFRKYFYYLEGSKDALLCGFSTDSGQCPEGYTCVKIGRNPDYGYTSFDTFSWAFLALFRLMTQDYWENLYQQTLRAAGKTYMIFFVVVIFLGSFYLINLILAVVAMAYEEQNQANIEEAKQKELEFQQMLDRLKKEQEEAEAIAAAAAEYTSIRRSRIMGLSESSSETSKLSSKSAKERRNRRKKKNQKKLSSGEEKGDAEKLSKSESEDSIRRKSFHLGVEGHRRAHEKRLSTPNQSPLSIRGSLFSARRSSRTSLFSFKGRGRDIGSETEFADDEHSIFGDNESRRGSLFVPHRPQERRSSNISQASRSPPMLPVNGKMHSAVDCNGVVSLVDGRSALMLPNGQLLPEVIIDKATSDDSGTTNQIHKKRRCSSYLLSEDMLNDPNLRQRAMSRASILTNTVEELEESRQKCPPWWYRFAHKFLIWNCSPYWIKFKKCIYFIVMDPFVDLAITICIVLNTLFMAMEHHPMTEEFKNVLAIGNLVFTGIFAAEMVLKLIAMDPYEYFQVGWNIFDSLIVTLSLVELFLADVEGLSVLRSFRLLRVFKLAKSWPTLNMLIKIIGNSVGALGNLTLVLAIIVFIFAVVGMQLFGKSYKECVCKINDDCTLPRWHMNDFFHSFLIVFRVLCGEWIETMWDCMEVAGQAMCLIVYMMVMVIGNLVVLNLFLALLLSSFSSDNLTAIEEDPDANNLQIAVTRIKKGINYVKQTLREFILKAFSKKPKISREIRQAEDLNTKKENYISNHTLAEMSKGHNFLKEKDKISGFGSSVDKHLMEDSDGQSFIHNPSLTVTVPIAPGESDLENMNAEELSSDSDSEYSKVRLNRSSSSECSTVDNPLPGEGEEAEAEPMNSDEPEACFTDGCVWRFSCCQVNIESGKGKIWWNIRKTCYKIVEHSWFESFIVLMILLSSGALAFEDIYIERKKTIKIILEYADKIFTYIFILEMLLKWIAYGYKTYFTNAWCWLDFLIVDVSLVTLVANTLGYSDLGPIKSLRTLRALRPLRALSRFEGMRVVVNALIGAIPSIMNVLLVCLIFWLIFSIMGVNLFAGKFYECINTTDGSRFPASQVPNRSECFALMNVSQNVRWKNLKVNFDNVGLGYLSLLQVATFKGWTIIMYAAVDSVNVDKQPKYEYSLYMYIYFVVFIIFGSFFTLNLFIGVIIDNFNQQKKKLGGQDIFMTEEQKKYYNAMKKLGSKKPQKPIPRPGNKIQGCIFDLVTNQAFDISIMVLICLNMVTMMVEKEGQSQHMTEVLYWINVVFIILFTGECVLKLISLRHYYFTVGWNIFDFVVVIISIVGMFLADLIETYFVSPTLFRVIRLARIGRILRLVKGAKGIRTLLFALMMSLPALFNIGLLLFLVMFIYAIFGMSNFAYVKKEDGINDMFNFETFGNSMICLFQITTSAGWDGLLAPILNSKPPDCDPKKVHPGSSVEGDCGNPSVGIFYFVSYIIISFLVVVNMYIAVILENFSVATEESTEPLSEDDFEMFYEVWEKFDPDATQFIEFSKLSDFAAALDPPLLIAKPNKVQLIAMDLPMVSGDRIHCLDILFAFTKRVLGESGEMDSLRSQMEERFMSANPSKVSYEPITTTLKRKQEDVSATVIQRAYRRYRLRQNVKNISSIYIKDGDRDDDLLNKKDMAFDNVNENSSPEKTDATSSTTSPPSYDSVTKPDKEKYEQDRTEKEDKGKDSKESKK
Target sequence in this assay (Q07699 whole entry partner, looked up): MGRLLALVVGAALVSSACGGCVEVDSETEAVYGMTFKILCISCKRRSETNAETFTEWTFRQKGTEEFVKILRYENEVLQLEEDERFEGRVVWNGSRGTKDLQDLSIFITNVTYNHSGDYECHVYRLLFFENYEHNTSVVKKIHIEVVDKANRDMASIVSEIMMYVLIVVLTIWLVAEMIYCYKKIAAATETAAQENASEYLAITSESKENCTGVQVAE

[2] = biological target: T1, hNav1.7; assay: Patch voltage clamp electrophysiology assay (EP), Syncropatch 384PE, CHO cells expressing Nav1.7; format: cell-based; conditions: holding potential -50 mV; […] compound incubation; read-out: EP_SP hNav1.7 (Ex. 243B) IC50
Experimental: Electrophysiological Assay (EP) (In Vitro Assay)
The following voltage clamp electrophysiology studies were performed on representative compounds using cells heterologously expressing Nav1.7 or Nav1.5 channels. cDNAs for Nav1.7 (NM_002977) and Nav1.5 (AC137587) were stably expressed in Chinese Hamstr Ovary (CHO) cells and CHL (Chinese Hamster Lung) cells respectively. […] Internal solution consists of (in mM): 110 […], 10 […], 20 EGTA, and 10 Hepes (pH adjusted to 7.2); and external solution contains (in mM): 60 NMDG, 80 NaCl, 4 KCl, 1 MgCl2, 2 CaCl2, 2 D-Glucose monohydrate, 10 Hepes (pH adjusted to 7.4 with NaOH).
The chip is moved into the measuring head and the instrument primes the chip with external and internal solutions. […] cells are added to the chip from a cell hotel, and a negative pressure of −50 mBar is applied to form a seal. Following treatment with seal enhancer solution and wash-off with external solution, negative pressure of −250 mbar is applied for 1 second to achieve the whole-cell configuration, followed by three washing steps in external solution. 20 μl of compounds is added to 40 μl in each well (1:3 dilution of compounds), and after mixing, 20 μl is removed so the volume is retained at 40 μl.
For voltage protocol, an holding potential of −50 mV is applied during the whole experiment. A depolarizing step is applied to −10 mV for 10 ms, followed by a hyperpolarization step to −150 mV for 20 ms to allow channel recovery from inactivation. A second depolarizing step is applied from −150 mV to −10 mV for 10 ms, where currents were measured to derive blocking effects of compounds. Inhibition is determined based on 7.5 min of compound incubation.
Target sequence in this assay (Q15858 other isoform, or with tags, fused parts or gaps): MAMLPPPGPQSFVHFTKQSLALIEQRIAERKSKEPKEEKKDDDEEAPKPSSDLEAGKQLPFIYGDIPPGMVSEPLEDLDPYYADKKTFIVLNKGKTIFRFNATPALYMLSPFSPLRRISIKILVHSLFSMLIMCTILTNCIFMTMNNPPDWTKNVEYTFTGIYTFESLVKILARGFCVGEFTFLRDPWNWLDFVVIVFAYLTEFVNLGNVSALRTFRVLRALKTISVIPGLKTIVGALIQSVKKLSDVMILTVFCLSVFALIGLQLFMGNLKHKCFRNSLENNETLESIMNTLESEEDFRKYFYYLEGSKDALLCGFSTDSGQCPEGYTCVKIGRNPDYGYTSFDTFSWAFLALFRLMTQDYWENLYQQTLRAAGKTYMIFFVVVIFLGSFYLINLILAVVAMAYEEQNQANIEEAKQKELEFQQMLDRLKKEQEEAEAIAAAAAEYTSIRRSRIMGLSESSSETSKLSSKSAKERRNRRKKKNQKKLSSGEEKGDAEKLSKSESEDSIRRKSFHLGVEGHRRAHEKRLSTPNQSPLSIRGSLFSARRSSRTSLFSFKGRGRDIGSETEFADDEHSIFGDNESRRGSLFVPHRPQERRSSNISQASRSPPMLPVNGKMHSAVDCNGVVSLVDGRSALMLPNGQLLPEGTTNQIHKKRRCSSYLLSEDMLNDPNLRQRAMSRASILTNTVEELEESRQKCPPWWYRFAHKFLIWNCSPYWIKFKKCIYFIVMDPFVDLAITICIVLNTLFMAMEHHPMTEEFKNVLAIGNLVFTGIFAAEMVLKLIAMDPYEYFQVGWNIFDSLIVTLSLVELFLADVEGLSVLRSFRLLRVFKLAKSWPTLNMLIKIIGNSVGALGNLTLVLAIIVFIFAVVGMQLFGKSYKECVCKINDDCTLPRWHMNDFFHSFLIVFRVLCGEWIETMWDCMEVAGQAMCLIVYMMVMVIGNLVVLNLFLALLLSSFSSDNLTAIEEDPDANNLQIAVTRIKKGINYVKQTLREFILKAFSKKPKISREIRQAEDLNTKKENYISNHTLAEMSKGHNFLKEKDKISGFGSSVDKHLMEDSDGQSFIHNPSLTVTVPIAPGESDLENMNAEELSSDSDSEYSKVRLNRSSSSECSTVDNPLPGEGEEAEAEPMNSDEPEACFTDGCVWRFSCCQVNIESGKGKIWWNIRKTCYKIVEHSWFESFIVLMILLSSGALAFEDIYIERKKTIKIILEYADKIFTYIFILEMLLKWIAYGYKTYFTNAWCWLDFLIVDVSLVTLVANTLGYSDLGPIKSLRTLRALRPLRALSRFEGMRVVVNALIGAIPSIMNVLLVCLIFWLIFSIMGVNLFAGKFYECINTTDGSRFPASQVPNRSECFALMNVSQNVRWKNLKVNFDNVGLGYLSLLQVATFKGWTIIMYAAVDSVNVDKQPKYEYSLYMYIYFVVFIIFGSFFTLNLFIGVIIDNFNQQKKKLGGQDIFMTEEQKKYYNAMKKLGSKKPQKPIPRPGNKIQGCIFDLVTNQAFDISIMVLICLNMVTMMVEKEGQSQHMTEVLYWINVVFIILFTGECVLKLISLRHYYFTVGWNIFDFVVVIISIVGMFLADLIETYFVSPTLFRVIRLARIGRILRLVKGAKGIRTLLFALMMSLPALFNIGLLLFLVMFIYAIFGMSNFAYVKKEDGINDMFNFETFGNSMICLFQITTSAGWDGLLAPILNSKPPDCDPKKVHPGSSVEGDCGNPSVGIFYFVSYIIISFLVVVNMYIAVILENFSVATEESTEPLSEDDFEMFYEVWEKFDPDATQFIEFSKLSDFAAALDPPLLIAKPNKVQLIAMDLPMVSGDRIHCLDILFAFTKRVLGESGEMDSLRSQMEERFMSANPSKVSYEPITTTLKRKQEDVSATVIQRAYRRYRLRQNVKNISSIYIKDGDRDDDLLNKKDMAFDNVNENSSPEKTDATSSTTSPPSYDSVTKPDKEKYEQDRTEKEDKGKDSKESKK

5-chloro-4-(((1S,2S,4S)-4-(3,5-dichlorophenyl)-2-(dimethylamino)cyclohexyl)amino)-2-fluoro-N-(pyrimidin-4-yl)benzenesulfonamide formate [Example 239]
IC50 [1]: 0.00293 µM | IC50 [2]: 0.0015 µM

CN(C)[C@H]1C[C@@H](c2cccc(OC(F)(F)F)c2)CC[C@@H]1Nc1cc(F)c(S(=O)(=O)Nc2ccncn2)cc1Cl [Example 225, 5-Chloro-4-(((1S,2S,4S)-2-(dimethylamino)-4-(3-(trifluoromethoxy)phenyl)cyclohexyl)amino)-2-fluoro-N-(pyrimidin-4-yl)benzenesulfonamide]
IC50 [1]: 0.000643 µM | IC50 [2]: 0.000651 µM

CN([C@H]1C[C@@H](O)C1)[C@H]1CCCC[C@@H]1Nc1cc(F)c(S(=O)(=O)Nc2nccs2)cc1Cl [Example 156, 5-Chloro-2-fluoro-4-(((1S,2S)-2-((cis-3-hydroxycyclobutyl)(methyl)amino)cyclohexyl)amino)-N-(thiazol-2-yl)benzenesulfonamide formate]
IC50 [1]: 0.316 µM | IC50 [2]: 0.0189 µM

Cc1nc(NS(=O)(=O)c2cc(Cl)c(N[C@H]3CCCC[C@@H]3N(C)C)cc2F)sc1Cl [Example 172, 5-Chloro-N-(5-chloro-4-methylthiazol-2-yl)-4-(((1S,2S)-2-(dimethylamino)cyclohexyl)amino)-2-fluorobenzenesulfonamide]
IC50 [1]: 0.0382 µM | IC50 [2]: 0.0123 µM

CN(C)[C@@H]1CC2C(C[C@H]1Nc1cc(F)c(S(=O)(=O)Nc3nccs3)cc1Cl)C2(F)F (stereo in doubt) [Example 208, 5-Chloro-4-(((1R,3R,4R,6S)-4-(dimethylamino)-7,7-difluorobicyclo[4.1.0]heptan-3-yl)amino)-2-fluoro-N-(thiazol-2-yl)benzenesulfonamide]
IC50 [1]: 0.0467 µM | IC50 [2]: 0.00612 µM

CN(C)[C@H]1CCCC[C@@H]1Oc1cc(F)c(S(=O)(=O)Nc2cccc(F)n2)cc1C1CC1 [Example 114, 5-Cyclopropyl-4-(((1S,2S)-2-(dimethylamino)cyclohexyl)oxy)-2-fluoro-N-(6-fluoropyridin-2-yl)benzenesulfonamide formate]
IC50 [1]: 0.264 µM | IC50 [2]: 0.0331 µM

CN1CC[C@@H]1C(=O)N(C)[C@H]1CCCC[C@@H]1Nc1cc(F)c(S(=O)(=O)Nc2nccs2)cc1Cl [Example 205, (R)—N-((1S,2S)-2-((2-Chloro-5-fluoro-4-(N-(thiazol-2-yl)sulfamoyl)phenyl)amino)cyclohexyl)-N,1-dimethylazetidine-2-carboxamide]
IC50 [1]: 0.556 µM | IC50 [2]: 0.0327 µM

O=S(=O)(Nc1ccncn1)c1cc(Cl)c(N[C@H]2CCCC[C@@H]2N2CCC[C@](F)(CO)C2)cc1F [Example 221, 5-Chloro-2-fluoro-4-(((1S,2S)-2-((R)-3-fluoro-3-(hydroxymethyl)piperidin-1-yl)cyclohexyl)amino)-N-(pyrimidin-4-yl)benzenesulfonamide]
IC50 [1]: 0.298 µM | IC50 [2]: 0.0629 µM

O=S(=O)(Nc1cccc(F)n1)c1cc(Cl)c(N[C@H]2CCCC[C@@H]2N2CCCCC2)cc1F [Example 123, 5-chloro-2-fluoro-N-(6-fluoropyridin-2-yl)-4-(((1S,2S)-2-(piperidin-1-yl)cyclohexyl)amino)benzenesulfonamide]
IC50 [1]: 0.0175 µM | IC50 [2]: 0.00454 µM

CN(C)[C@H]1CCCC[C@@H]1Nc1cc(F)c(S(=O)(=O)Nc2cccc(F)n2)cc1C1CC1 [Example 107, 5-cyclopropyl-4-(((1S,2S)-2-(dimethylamino)cyclohexyl)amino)-2-fluoro-N-(6-fluoropyridin-2-yl)benzenesulfonamide formate]
IC50 [1]: 0.137 µM | IC50 [2]: 0.018 µM

CC(=O)N1CC(N(C)[C@H]2CCCC[C@@H]2Nc2cc(F)c(S(=O)(=O)Nc3nccs3)cc2Cl)C1 [Example 148, 4-(((1S,2S)-2-((1-Acetylazetidin-3-yl)(methyl)amino)cyclohexyl)amino)-5-chloro-2-fluoro-N-(thiazol-2-yl)benzenesulfonamide]
IC50 [1]: 0.305 µM | IC50 [2]: 0.0253 µM

CN(C)[C@H]1C[C@@H](C(F)(F)F)CC[C@@H]1Nc1cc(F)c(S(=O)(=O)Nc2ccncn2)cc1C1CC1 [Example 178, 5-cyclopropyl-4-(((1S,2S,4S)-2-(dimethylamino)-4-(trifluoromethyl)cyclohexyl)amino)-2-fluoro-N-(pyrimidin-4-yl)benzenesulfonamide]
IC50 [1]: 0.205 µM | IC50 [2]: 0.0191 µM

CN(C)[C@H]1C[C@H](c2cccc(C(F)(F)F)c2)CC[C@@H]1Nc1cc(F)c(S(=O)(=O)Nc2nccs2)cc1Cl [Example 137, 5-chloro-4-(((1S,2S,4R)-2-(dimethylamino)-4-(3-(trifluoromethyl)phenyl)cyclohexyl)amino)-2-fluoro-N-(thiazol-2-yl)benzenesulfonamide]
IC50 [1]: 0.00357 µM | IC50 [2]: 0.00124 µM

CN(CCC#N)[C@H]1CCCC[C@@H]1Nc1cc(F)c(S(=O)(=O)Nc2nccs2)cc1Cl [Example 125, 5-Chloro-4-(((1S,2S)-2-((2-cyanoethyl)(methyl)amino)cyclohexyl)amino)-2-fluoro-N-(thiazol-2-yl)benzenesulfonamide]
IC50 [1]: 0.204 µM | IC50 [2]: 0.00753 µM

CN(C)[C@H]1CCC(c2ccccc2F)C[C@@H]1Nc1cc(F)c(S(=O)(=O)Nc2nccs2)cc1Cl (stereo in doubt) [Example 174, 5-chloro-4-(((1S,2S,5S)-2-(dimethylamino)-5-(2-fluorophenyl)cyclohexyl)amino)-2-fluoro-N-(thiazol-2-yl)benzenesulfonamide]
IC50 [1]: 0.357 µM | IC50 [2]: 0.0502 µM

Cc1nc(NS(=O)(=O)c2cc(Cl)c(N[C@H]3CCCC[C@@H]3N(C)C)cc2F)sc1F [Example 211, 5-Chloro-4-(((1S,2S)-2-(dimethylamino)cyclohexyl)amino)-2-fluoro-N-(5-fluoro-4-methylthiazol-2-yl)benzenesulfonamide formate]
IC50 [1]: 1.43 µM | IC50 [2]: 0.12 µM

O=S(=O)(Nc1ccncn1)c1cc(Cl)c(N[C@H]2CC[C@H](C(F)(F)F)C[C@@H]2N2CCCCC2)cc1F [Example 206, 5-chloro-2-fluoro-4-(((1S,2S,4S)-2-(piperidin-1-yl)-4-(trifluoromethyl)cyclohexyl)amino)-N-(pyrimidin-4-yl)benzenesulfonamide]
IC50 [1]: 0.0411 µM | IC50 [2]: 0.00865 µM

CC(=O)N(C)[C@H]1CCCC[C@@H]1Nc1cc(F)c(S(=O)(=O)Nc2nccs2)cc1Cl [Example 166, N-((1S,2S)-2-((2-Chloro-5-fluoro-4-(N-(thiazol-2-yl)sulfamoyl)phenyl)amino)cyclohexyl)-N-methylacetamide]
IC50 [1]: 0.341 µM | IC50 [2]: 0.0139 µM

CN(CCO)[C@H]1C[C@@H](C(F)(F)F)CC[C@@H]1Nc1cc(F)c(S(=O)(=O)Nc2nccs2)cc1Cl [Example 138, 5-chloro-2-fluoro-4-(((1S,2S,4S)-2-((2-hydroxyethyl)(methyl)amino)-4-(trifluoromethyl)cyclohexyl)amino)-N-(thiazol-2-yl)benzenesulfonamide]
IC50 [1]: 0.00943 µM | IC50 [2]: 0.00321 µM

O=S(=O)(Nc1cccc(F)n1)c1cc(Cl)c(N[C@@H]2CCCC[C@H]2N2CCCCC2)cc1F [Example 117, 5-chloro-2-fluoro-N-(6-fluoropyridin-2-yl)-4-(((1R,2R)-2-(piperidin-1-yl)cyclohexyl)amino)benzenesulfonamide]
IC50 [1]: 2.22 µM | IC50 [2]: 0.97 µM

O=S(=O)(Nc1nccs1)c1cc(Cl)c(N[C@H]2CCCC[C@@H]2N2CCC(F)CC2)cc1F [Example 113, 5-chloro-2-fluoro-4-(((1S,2S)-2-(4-fluoropiperidin-1-yl)cyclohexyl)amino)-N-(thiazol-2-yl)benzenesulfonamide]
IC50 [1]: 0.185 µM | IC50 [2]: 0.0117 µM

N#C[C@@H]1CCCN([C@H]2CCCC[C@@H]2Nc2cc(F)c(S(=O)(=O)Nc3nccs3)cc2Cl)C1 [Example 176, 5-Chloro-4-(((1S,2S)-2-((R)-3-cyanopiperidin-1-yl)cyclohexyl)amino)-2-fluoro-N-(thiazol-2-yl)benzenesulfonamide]
IC50 [1]: 0.491 µM | IC50 [2]: 0.00872 µM

CN(C)[C@H]1C[C@@H]2C[C@@H]2C[C@@H]1Nc1cc(F)c(S(=O)(=O)Nc2nccs2)cc1Cl [Example 216]
IC50 [1]: 0.0721 µM | IC50 [2]: 0.00477 µM

CN(C)[C@H]1C[C@H](F)CC[C@@H]1Nc1cc(F)c(S(=O)(=O)Nc2nccs2)cc1Cl [Example 193, 5-chloro-4-(((1S,2S,4R)-2-(dimethylamino)-4-fluorocyclohexyl)amino)-2-fluoro-N-(thiazol-2-yl)benzenesulfonamide]
IC50 [1]: 0.911 µM | IC50 [2]: 0.0394 µM

CN(CCCO)[C@H]1CCCC[C@@H]1Nc1cc(F)c(S(=O)(=O)Nc2cccc(F)n2)cc1Cl [Example 122, 5-chloro-2-fluoro-N-(6-fluoropyridin-2-yl)-4-(((1S,2S)-2-((3-hydroxypropyl)(methyl)amino)cyclohexyl)amino)benzenesulfonamide]
IC50 [1]: 0.205 µM | IC50 [2]: 0.0336 µM
